# From article PMC8113758, “Functional Characterization of Sex Pheromone Neurons and Receptors in the Armyworm, Mythimna separata (Walker)” (Frontiers in Neuroanatomy, 2021)
# Tests used:
# Experiment in all cases: two-electrode voltage clamp, Xenopus oocytes, dose-response
# Assay type in all cases: cell-based, Mythimna separata
# [1] = tested on: T1, MsepPR5
# T1 construct: full-length; with MsepOrco
# [2] = tested on: T2, MsepPR1
# T2 construct: full-length; with MsepOrco
# [3] = tested on: T3, MsepPR6
# T3 construct: full-length; with MsepOrco
structure (smiles),measurement,setting,value
"CCCC/C=C\CCCCCCCC=O [Z9–14:Ald, (Z)-9-tetradecenal]",EC50,[1],30.4 µM
same,EC50,[2],49 µM
"CCCC/C=C\CCCCCCCCOC(C)=O [Z9–14:OAc, (Z)-9-tetradecen-1-yl acetate]",EC50,[3],0.746 µM
